According to article PMC7949057, “The cytoprotective protein MANF promotes neuronal survival independently from its role as a GRP78 cofactor” (The Journal of Biological Chemistry, 2021):
Residue numbers refer to the chain shown, from its start.

Experiments:
Assay type in all cases: binding
MANF [1] = molecular target: T1, MANF (Homo sapiens, UniProt P55145); assay: microscale thermophoresis
T1 construct: mature secreted protein (about 18 kDa, signal peptide cleaved), made in CHO-derived cells (QMCF, Icosagen), no tag told; amine-labelled with RED-NHS for MST
T1 sequence (P55145 25-182): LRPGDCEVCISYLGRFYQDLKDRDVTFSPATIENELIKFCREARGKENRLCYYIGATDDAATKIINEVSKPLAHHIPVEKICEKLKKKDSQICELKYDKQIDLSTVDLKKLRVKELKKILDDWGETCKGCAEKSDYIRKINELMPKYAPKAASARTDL
Text: microscale thermophoresis on MANF | MANF did interact with ADP, ATP, and AMP–PNP with Kd-s of […]

MANF [2] = molecular target: T2, MANF (Homo sapiens, UniProt P55145, V137G/K138A, form not given); assay: microscale thermophoresis; details: labelled MANF 50 nM; 10 mM Na-phosphate pH 7.4, 1 mM MgCl2, 3 mM KCl, 150 mM NaCl, 0.05% Tween-20; 25 °C; 1:1 fit
T2 construct: mature secreted protein (about 18 kDa, signal peptide cleaved), made in CHO-derived cells (QMCF, Icosagen), no tag told; amine-labelled with RED-NHS for MST
T2 sequence (P55145 25-182 V137G/K138A): T1 sequence (P55145 25-182) with V113G, K114A
Text: microscale thermophoresis on MANF | the mutant was able to bind ATP similarly to the wild-type MANF

C-MANF = molecular target: T3, C-MANF (Homo sapiens, UniProt P55145); assay: […]-HSQC NMR chemical shift perturbation; details: 100 μM C-MANF, ATP:protein 0.5 to 10; 20 mM sodium phosphate pH 6.5, 50 mM NaCl; 25 °C; site at V134, K135
T3 sequence (P55145 120-182 limits assumed): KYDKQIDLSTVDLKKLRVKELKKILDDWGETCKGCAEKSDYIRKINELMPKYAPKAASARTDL

GRP78 = molecular target: T4, GRP78 (Cricetulus griseus, UniProt G3I8R9); assay: fluorescent nucleotide release (ex […] nm, em […] nm); details: labelled compound; GRP78 1.25 μM, MABA-ADP 1.25 μM, chase ATP 125 μM, no MANF; 50 mM HEPES-KOH pH 7.4, 100 mM KCl, 10 mM MgCl2
T4 construct: gene HSPA5; full-length recombinant, N-terminal His-tag, labelled with RED-tris-NTA for MST
T4 sequence (G3I8R9 19-654): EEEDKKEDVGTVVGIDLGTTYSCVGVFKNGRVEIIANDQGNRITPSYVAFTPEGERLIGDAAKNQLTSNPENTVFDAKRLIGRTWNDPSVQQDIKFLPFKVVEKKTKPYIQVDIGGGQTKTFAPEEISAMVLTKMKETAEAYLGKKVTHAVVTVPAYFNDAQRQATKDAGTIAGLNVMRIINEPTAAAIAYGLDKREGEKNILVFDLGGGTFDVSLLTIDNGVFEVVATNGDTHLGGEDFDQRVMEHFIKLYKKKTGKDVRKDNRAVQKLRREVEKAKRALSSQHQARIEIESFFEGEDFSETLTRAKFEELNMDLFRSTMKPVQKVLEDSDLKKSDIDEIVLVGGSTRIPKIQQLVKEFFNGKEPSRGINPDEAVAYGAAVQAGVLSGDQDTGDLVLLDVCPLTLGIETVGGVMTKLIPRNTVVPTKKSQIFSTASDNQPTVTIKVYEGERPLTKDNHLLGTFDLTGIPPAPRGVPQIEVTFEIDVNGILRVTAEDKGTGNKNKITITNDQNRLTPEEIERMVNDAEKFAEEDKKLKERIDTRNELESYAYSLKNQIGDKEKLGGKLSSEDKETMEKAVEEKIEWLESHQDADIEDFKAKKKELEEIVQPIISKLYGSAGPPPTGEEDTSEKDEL

| Structure (SMILES) | Kd (MANF [1]) [µM] | Kd (MANF [2]) [µM] | 15N-HSQC NMR chemical shift perturbation (C-MANF) | koff (GRP78) |
| --- | --- | --- | --- | --- |
| Nc1ncnc2c1ncn2[C@@H]1O[C@H](COP(=O)(O)OP(=O)(O)O)[C@@H](O)[C@H]1O [ADP] | 880 ± 280 |  |  |  |
| Nc1ncnc2c1ncn2[C@@H]1O[C@H](COP(=O)(O)OP(=O)(O)NP(=O)(O)O)[C@@H](O)[C@H]1O [AMP–PNP] | 560 ± 170 |  |  |  |
| Nc1ncnc2c1ncn2[C@@H]1O[C@H](COP(=O)(O)OP(=O)(O)OP(=O)(O)O)[C@@H](O)[C@H]1O [ATP] | 830 ± 390 | 339 ± 160 | the ATP binding site is located at the C-terminal domain of MANF |  |
| CNc1ccccc1C(=O)NCCCCNc1nc2c(N)ncnc2n1[C@@H]1O[C@H](COP(=O)(O)OP(=O)(O)O)[C@@H](O)[C@H]1O [MABA–ADP] |  |  |  | determine the mean koff rates of MABA–ADP release |
